System: subjects with moderate-to-severe plaque psoriasis
Experiment: PASI response, Example 2 long-term extension to Week 52
Format: in vivo, human
Description: Described below is a multicenter, long-term extension (LTE), double-blind, dose-ranging, parallel group interventional study in participants from Example 1 to evaluate the long-term efficacy and safety of the hydrochloride salt of the compound of Formula (I) for the treatment of moderate-to-severe plaque psoriasis. Patients from Example 1 continued to receive the same dose of the compound of Formula (I) for an additional 36-week treatment period with a 4-week safety follow up period after the last administration of the compound of Formula (I). Patients randomized to placebo in Example 1 received the compound of Formula (I) at a dose of 100 mg QD starting at Week 16 of Example 1 (FIG. 21).
The primary efficacy endpoint is the proportion of participants achieving a PASI 75 response at Week 52, defined as at least a […] reduction from baseline PASI of Example 1. For primary analysis, composite strategy (non-responder imputation) was applied to address intercurrent event #1 (Discontinuation of study intervention due to lack of efficacy or due to an AE of worsening of psoriasis) and […] (initiation of a protocol-prohibited medication or therapy that could improve psoriasis); treatment policy strategy (observed data) was applied to intercurrent event #3 (Discontinuation of study intervention due to other reasons). Participants with missing data after application of ICEs are considered as non-responders.
Since there was no control arm (after week 16), in this primary analysis, only the proportion of participants who achieved a PASI75 response and its […] confidence interval at Week 52 were summarized for each intervention group.

[1] = Week 20, Placebo → 100 mg QD, N=35
[2] = Week 24, Placebo → 100 mg QD, N=35
[3] = Week 28, Placebo → 100 mg QD, N=35
[4] = Week 32, Placebo → 100 mg QD, N=35
[5] = Week 40, Placebo → 100 mg QD, N=35
[6] = Week 52, Placebo → 100 mg QD, N=35

CC(=O)NCCCC[C@@H]1NC(=O)[C@H](Cc2c[nH]c3c(C)cccc23)NC(=O)[C@H]([C@@H](C)O)NC(=O)[C@H](CC(N)=O)NC(=O)[C@@H](NC(C)=O)C(C)(C)SSC(C)(C)[C@@H](C(=O)N[C@@H](Cc2ccc(OCCN)cc2)C(=O)N[C@@H](Cc2ccc3ccccc3c2)C(=O)NC2(C(=O)N[C@@H](CCC(=O)O)C(=O)N[C@@H](CC(N)=O)C(=O)N[C@@H](Cc3cccnc3)C(=O)N(C)CC(N)=O)CCOCC2)NC1=O [IL-23 receptor antagonist peptide, Ac-[Pen]*-N-T-[W(7-Me)]-[Lys(Ac)]-[Pen]*-Phe[4-(2-aminoethoxy)]-[2-Nal]-[THP]-E-N-[3-Pal]-Sarc-NH2 (*[Pen]-[Pen]* formdisulfidebond)]
PASI ≥90% Improvement, subjects (%) (Week 20, 100 mg BID, N=42): (61.9%)
PASI 100% Improvement, subjects (%) (Week 20, 100 mg QD, N=43): (14.0%)
PASI ≥75% Improvement, subjects (%) (Week 20, 100 mg QD, N=43): (60.5%)
PASI ≥90% Improvement, subjects (%) (Week 20, 100 mg QD, N=43): (44.2%)
PASI 100% Improvement, subjects (%) [1]: (2.9%)
PASI ≥75% Improvement, subjects (%) [1]: (40.0%)
PASI ≥90% Improvement, subjects (%) [1]: (14.3%)
PASI 100% Improvement, subjects (%) (Week 24, 25 mg BID, N=41): (19.5%)
PASI ≥75% Improvement, subjects (%) (Week 24, 25 mg BID, N=41): (61.0%)
PASI ≥90% Improvement, subjects (%) (Week 24, 25 mg BID, N=41): (29.3%)
PASI 100% Improvement, subjects (%) (Week 24, 25 mg QD, N=43): (16.3%)
PASI ≥75% Improvement, subjects (%) (Week 24, 25 mg QD, N=43): (46.5%)
PASI ≥90% Improvement, subjects (%) (Week 24, 25 mg QD, N=43): (32.6%)
PASI 100% Improvement, subjects (%) (Week 24, 50 mg QD, N=43): (27.9%)
PASI ≥75% Improvement, subjects (%) (Week 24, 50 mg QD, N=43): (60.5%)
PASI ≥90% Improvement, subjects (%) (Week 24, 50 mg QD, N=43): (53.5%)
PASI 100% Improvement, subjects (%) (Week 24, 100 mg BID, N=42): (35.7%)
PASI ≥75% Improvement, subjects (%) (Week 24, 100 mg BID, N=42): (81.0%)
PASI ≥90% Improvement, subjects (%) (Week 24, 100 mg BID, N=42): (69.0%)
PASI 100% Improvement, subjects (%) (Week 24, 100 mg QD, N=43): (20.9%)
PASI ≥75% Improvement, subjects (%) (Week 24, 100 mg QD, N=43): (69.8%)
PASI ≥90% Improvement, subjects (%) (Week 24, 100 mg QD, N=43): (55.8%)
PASI 100% Improvement, subjects (%) [2]: (8.6%)
PASI ≥75% Improvement, subjects (%) [2]: (60.0%)
PASI ≥90% Improvement, subjects (%) [2]: (22.9%)
PASI 100% Improvement, subjects (%) (Week 28, 25 mg BID, N=41): (17.1%)
PASI ≥75% Improvement, subjects (%) (Week 28, 25 mg BID, N=41): (61.0%)
PASI ≥90% Improvement, subjects (%) (Week 28, 25 mg BID, N=41): (36.6%)
PASI 100% Improvement, subjects (%) (Week 28, 25 mg QD, N=43): (18.6%)
PASI ≥75% Improvement, subjects (%) (Week 28, 25 mg QD, N=43): (39.5%)
PASI ≥90% Improvement, subjects (%) (Week 28, 25 mg QD, N=43): (27.9%)
PASI 100% Improvement, subjects (%) (Week 28, 50 mg QD, N=43): (14.0%)
PASI ≥75% Improvement, subjects (%) (Week 28, 50 mg QD, N=43): (69.8%)
PASI ≥90% Improvement, subjects (%) (Week 28, 50 mg QD, N=43): (48.8%)
PASI 100% Improvement, subjects (%) (Week 28, 100 mg BID, N=42): (38.1%)
PASI ≥75% Improvement, subjects (%) (Week 28, 100 mg BID, N=42): (78.6%)
PASI ≥90% Improvement, subjects (%) (Week 28, 100 mg BID, N=42): (61.9%)
PASI 100% Improvement, subjects (%) (Week 28, 100 mg QD, N=43): (25.6%)
PASI ≥75% Improvement, subjects (%) (Week 28, 100 mg QD, N=43): (65.1%)
PASI ≥90% Improvement, subjects (%) (Week 28, 100 mg QD, N=43): (51.2%)
PASI 100% Improvement, subjects (%) [3]: (14.3%)
PASI ≥75% Improvement, subjects (%) [3]: (62.9%)
PASI ≥90% Improvement, subjects (%) [3]: (22.9%)
PASI 100% Improvement, subjects (%) (Week 32, 25 mg BID, N=41): (17.1%)
PASI ≥75% Improvement, subjects (%) (Week 32, 25 mg BID, N=41): (53.7%)
PASI ≥90% Improvement, subjects (%) (Week 32, 25 mg BID, N=41): (39.0%)
PASI 100% Improvement, subjects (%) (Week 32, 25 mg QD, N=43): (18.6%)
PASI ≥75% Improvement, subjects (%) (Week 32, 25 mg QD, N=43): (48.8%)
PASI ≥90% Improvement, subjects (%) (Week 32, 25 mg QD, N=43): (30.2%)
PASI 100% Improvement, subjects (%) (Week 32, 50 mg QD, N=43): (25.6%)
PASI ≥75% Improvement, subjects (%) (Week 32, 50 mg QD, N=43): (65.1%)
PASI ≥90% Improvement, subjects (%) (Week 32, 50 mg QD, N=43): (51.2%)
PASI 100% Improvement, subjects (%) (Week 32, 100 mg BID, N=42): (33.3%)
PASI ≥75% Improvement, subjects (%) (Week 32, 100 mg BID, N=42): (78.6%)
PASI ≥90% Improvement, subjects (%) (Week 32, 100 mg BID, N=42): (66.7%)
PASI 100% Improvement, subjects (%) (Week 32, 100 mg QD, N=43): (25.6%)
PASI ≥75% Improvement, subjects (%) (Week 32, 100 mg QD, N=43): (69.8%)
PASI ≥90% Improvement, subjects (%) (Week 32, 100 mg QD, N=43): (62.8%)
PASI 100% Improvement, subjects (%) [4]: (20.0%)
PASI ≥75% Improvement, subjects (%) [4]: (65.7%)
PASI ≥90% Improvement, subjects (%) [4]: (40.0%)
PASI 100% Improvement, subjects (%) (Week 40, 25 mg BID, N=41): (14.6%)
PASI ≥75% Improvement, subjects (%) (Week 40, 25 mg BID, N=41): (53.7%)
PASI ≥90% Improvement, subjects (%) (Week 40, 25 mg BID, N=41): (31.7%)
PASI 100% Improvement, subjects (%) (Week 40, 25 mg QD, N=43): (11.6%)
PASI ≥75% Improvement, subjects (%) (Week 40, 25 mg QD, N=43): (48.8%)
PASI ≥90% Improvement, subjects (%) (Week 40, 25 mg QD, N=43): (32.6%)
PASI 100% Improvement, subjects (%) (Week 40, 50 mg QD, N=43): (20.9%)
PASI ≥75% Improvement, subjects (%) (Week 40, 50 mg QD, N=43): (67.4%)
PASI ≥90% Improvement, subjects (%) (Week 40, 50 mg QD, N=43): (46.5%)
PASI 100% Improvement, subjects (%) (Week 40, 100 mg BID, N=42): (35.7%)
PASI ≥75% Improvement, subjects (%) (Week 40, 100 mg BID, N=42): (78.6%)
PASI ≥90% Improvement, subjects (%) (Week 40, 100 mg BID, N=42): (64.3%)
PASI 100% Improvement, subjects (%) (Week 40, 100 mg QD, N=43): (25.6%)
PASI ≥75% Improvement, subjects (%) (Week 40, 100 mg QD, N=43): (69.8%)
PASI ≥90% Improvement, subjects (%) (Week 40, 100 mg QD, N=43): (55.8%)
PASI 100% Improvement, subjects (%) [5]: (28.6%)
PASI ≥75% Improvement, subjects (%) [5]: (60.0%)
PASI ≥90% Improvement, subjects (%) [5]: (45.7%)
PASI 100% Improvement, subjects (%) (Week 52, 25 mg BID, N=41): (17.1%)
PASI ≥75% Improvement, subjects (%) (Week 52, 25 mg BID, N=41): (58.5%)
PASI ≥90% Improvement, subjects (%) (Week 52, 25 mg BID, N=41): (36.6%)
PASI 100% Improvement, subjects (%) (Week 52, 25 mg QD, N=43): (14.0%)
PASI ≥75% Improvement, subjects (%) (Week 52, 25 mg QD, N=43): (48.8%)
PASI ≥90% Improvement, subjects (%) (Week 52, 25 mg QD, N=43): (27.9%)
PASI 100% Improvement, subjects (%) (Week 52, 50 mg QD, N=43): (20.9%)
PASI ≥75% Improvement, subjects (%) (Week 52, 50 mg QD, N=43): (69.8%)
PASI ≥90% Improvement, subjects (%) (Week 52, 50 mg QD, N=43): (41.9%)
PASI 100% Improvement, subjects (%) (Week 52, 100 mg BID, N=42): (40.5%)
PASI ≥75% Improvement, subjects (%) (Week 52, 100 mg BID, N=42): (76.2%)
PASI 100% Improvement, subjects (%) (Week 52, 100 mg QD, N=43): (25.6%)
PASI ≥75% Improvement, subjects (%) (Week 52, 100 mg QD, N=43): (65.1%)
PASI ≥90% Improvement, subjects (%) (Week 52, 100 mg QD, N=43): (51.2%)
PASI 100% Improvement, subjects (%) [6]: (34.3%)
PASI ≥75% Improvement, subjects (%) [6]: (65.7%)
PASI ≥90% Improvement, subjects (%) [6]: (57.1%)
PASI and IGA response rates (from Week 16 to Week 52): generally maintained
